Assay results published in patent publication US8802720B2, “Acylamino-substituted fused cyclopentanecarboxylic acid derivatives and their use as pharmaceuticals” (SANOFI, priority 2008, dated 2014).

Biological target: human Edg-2 receptor (LPA1 receptor) (Homo sapiens, UniProt Q92633)
Experiment: Edg-2 receptor inhibition by FLIPR calcium fluorescence measurement (LPA-mediated calcium liberation)
Format: cell-based
Settings: CHO cells stably overexpressing human Edg-2 receptor; LPA 18:1 100 nM; fluo-4 fluorescence; triplicate; read-out: Inhibitory concentrations IC50 for inhibition of the Edg-2 receptor
Method in brief: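 CHO cells stably overexpressing human Edg-2 were fluo-4 loaded and pre-incubated ~5 min with compound (≤0.3% DMSO) in HBSS/HEPES/probenecid, pH 7.5. Then LPA 18:1 at 100 nM final was added. Peak calcium fluorescence over ~3 min, baseline-corrected versus DMSO, gave % inhibition in triplicate and IC50.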

human Edg-2 receptor (LPA1 receptor), sequence (Q92633 whole entry): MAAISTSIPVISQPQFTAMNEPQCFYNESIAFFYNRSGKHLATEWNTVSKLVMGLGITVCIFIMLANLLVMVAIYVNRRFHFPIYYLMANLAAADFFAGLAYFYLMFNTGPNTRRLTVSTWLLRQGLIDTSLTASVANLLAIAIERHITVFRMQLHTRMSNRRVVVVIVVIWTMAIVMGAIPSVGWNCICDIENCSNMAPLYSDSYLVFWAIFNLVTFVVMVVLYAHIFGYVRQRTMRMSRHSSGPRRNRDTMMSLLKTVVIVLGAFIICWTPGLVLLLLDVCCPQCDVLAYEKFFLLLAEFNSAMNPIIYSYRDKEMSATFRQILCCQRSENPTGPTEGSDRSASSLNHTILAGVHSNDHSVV

IC50, < 100 nM:
COc1c(F)cc(C(=O)NC2(C(=O)O)Cc3ccccc3C2)cc1-c1ccc(Cl)cc1 [Example 358]
COc1c(F)cc(C(=O)NC2(C(=O)O)Cc3ccccc3C2)cc1-c1cccc(NS(C)(=O)=O)c1 [Example 359]
COc1c(F)cc(C(=O)NC2(C(=O)O)Cc3ccccc3C2)cc1-c1cccc(C(C)C)c1 [Example 360, 2-[(5-fluoro-3′-isopropyl-6-methoxy-biphenyl-3-carbonyl)-amino]-indane-2-carboxylic acid]
COc1c(F)cc(C(=O)NC2(C(=O)O)Cc3ccccc3C2)cc1-c1cccc(NS(=O)(=O)N(C)C)c1 [Example 361]
O=C(NC1(C(=O)O)Cc2ccccc2C1)c1ccc(C(F)(F)F)c(OCCc2cc(Cl)ccc2Cl)c1 [Example 362, 2-{3-[2-(2,5-Dichloro-phenyl)-ethoxy]-4-trifluoromethyl-benzoylamino}-indane-2-carboxylic acid]
